Laboratory results reported in PubChem BioAssay AID248 (DTP/NCI, 2004).
Inconclusive results and toxic doses are left out. No stated cut-off is given here; in the data, active means T/C of 150% or more; inactive means T/C below 125%.

System: L1210 leukemia ip in BDF1 mice, survival T/C
Assay: NCI In Vivo Anticancer Drug Screen. Data for tumor model L1210 Leukemia (intraperitoneal) in B6D2F1 (BDF1) mice
Conditions: endpoint: mean survival time, higher = longer survival
Summary of the method: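 In this screen, tumor-bearing mice given compound are compared to those given vehicle, and their survival values are reported as a treated-to-control quotient.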

Measured: T/C

COc1ccc(C(O)SP(=S)(OC)c2ccc(OC)cc2)cc1 (configuration not stated)
inactive: dose: 50.0 mg/kg/injection, schedule: Q01DX009 (ip), vehicle: saline with Tween-80 100 % of control | dose: 100.0 mg/kg/injection, schedule: Q01DX009 (ip), vehicle: saline with Tween-80 100 % of control | dose: 100.0 mg/kg/injection, schedule: Q04DX003 (ip), vehicle: saline with Tween-80 92 % of control | dose: 200.0 mg/kg/injection, schedule: Q01DX009 (ip), vehicle: saline with Tween-80 95 % of control | dose: 200.0 mg/kg/injection, schedule: Q04DX003 (ip), vehicle: saline with Tween-80 88 % of control

CCOC(=O)/C(O)=C(\C=N\C(N)=O)C(=O)OCC
inactive: dose: 100.0 mg/kg/injection, schedule: Q04DX003 (ip), vehicle: saline sonified 93 % of control | dose: 200.0 mg/kg/injection, schedule: Q04DX003 (ip), vehicle: saline sonified 103 % of control | dose: 400.0 mg/kg/injection, schedule: Q04DX003 (ip), vehicle: saline sonified 95 % of control

COc1cc(O)c(OC(C)=O)cc1OC
inactive: dose: 100.0 mg/kg/injection, schedule: Q01DX001 (ip), vehicle: gum acacia 97 % of control | dose: 200.0 mg/kg/injection, schedule: Q01DX001 (ip), vehicle: gum acacia 97 % of control | dose: 400.0 mg/kg/injection, schedule: Q01DX001 (ip), vehicle: gum acacia 117 % of control

CCC1(CC)NC(=O)N(CCO)C1=O
inactive: dose: 50.0 mg/kg/injection, schedule: Q04DX003 (ip), vehicle: saline 110 % of control | dose: 100.0 mg/kg/injection, schedule: Q04DX003 (ip), vehicle: saline 95 % of control | dose: 200.0 mg/kg/injection, schedule: Q04DX003 (ip), vehicle: saline 106 % of control | dose: 400.0 mg/kg/injection, schedule: Q04DX003 (ip), vehicle: saline 105 % of control

CC(C)CC(CC(C)C)NCC(C)OC(=O)c1ccc(N(C)C)cc1 (configuration not stated)
inactive: dose: 75.0 mg/kg/injection, schedule: Q01DX001 (ip), vehicle: other 101 % of control | dose: 150.0 mg/kg/injection, schedule: Q01DX001 (ip), vehicle: other 106 % of control

c1scc2c1COCc1cscc1-2
inactive: dose: 100.0 mg/kg/injection, schedule: Q01DX001 (ip), vehicle: saline with Tween-80 94 % of control | dose: 200.0 mg/kg/injection, schedule: Q01DX001 (ip), vehicle: saline with Tween-80 94 % of control | dose: 400.0 mg/kg/injection, schedule: Q01DX001 (ip), vehicle: saline with Tween-80 88 % of control

O=S(=O)(Nc1cc2c(nc3ccccn32)c2ccccc12)c1ccccc1
inactive: dose: 50.0 mg/kg/injection, schedule: Q01DX001 (ip), vehicle: saline 103 % of control

Nc1nc(-c2ccccc2)c(CCCO)c(=O)[nH]1
inactive: dose: 100.0 mg/kg/injection, schedule: Q01DX001 (ip), vehicle: Klucel (hydroxypropylcellulose) (HPC) 102 % of control | dose: 200.0 mg/kg/injection, schedule: Q01DX001 (ip), vehicle: Klucel (hydroxypropylcellulose) (HPC) 102 % of control | dose: 400.0 mg/kg/injection, schedule: Q01DX001 (ip), vehicle: Klucel (hydroxypropylcellulose) (HPC) 98 % of control

CCS(=O)(=O)C1C2C=CC(O2)C1S(=O)(=O)CC (configuration not stated)
inactive: dose: 100.0 mg/kg/injection, schedule: Q04DX003 (ip), vehicle: Klucel (hydroxypropylcellulose) (HPC) 102 % of control | dose: 200.0 mg/kg/injection, schedule: Q04DX003 (ip), vehicle: Klucel (hydroxypropylcellulose) (HPC) 101 % of control | dose: 400.0 mg/kg/injection, schedule: Q04DX003 (ip), vehicle: Klucel (hydroxypropylcellulose) (HPC) 96 % of control

N#CCN(CC#N)CC#N
inactive: dose: 3.13 mg/kg/injection, schedule: Q04DX003 (ip), vehicle: saline with Tween-80 102 % of control | dose: 6.25 mg/kg/injection, schedule: Q04DX003 (ip), vehicle: saline with Tween-80 111 % of control

O=C(Nc1ccc(NC(=O)c2ccc(C3=NCCN3)cc2)cc1)Nc1ccc(C2=NCCN2)cc1
active: dose: 25.0 mg/kg/injection, schedule: Q01DX Z (ip), vehicle: carboxymethylcellulose (CMC) 206 % of control | dose: 50.0 mg/kg/injection, schedule: Q01DX Z (ip), vehicle: carboxymethylcellulose (CMC) 268 % of control | dose: 62.0 mg/kg/injection, schedule: Q01DX Z (ip), vehicle: carboxymethylcellulose (CMC) 282 % of control | dose: 125.0 mg/kg/injection, schedule: Q01DX Z (ip), vehicle: carboxymethylcellulose (CMC) 214 % of control
inactive: dose: 6.25 mg/kg/injection, schedule: Q01DX Z (ip), vehicle: carboxymethylcellulose (CMC) 117 % of control | dose: 62.0 mg/kg/injection, schedule: Q01DX Z (oral), vehicle: carboxymethylcellulose (CMC) 120 % of control | dose: 100.0 mg/kg/injection, schedule: Q01DX Z (ip), vehicle: carboxymethylcellulose (CMC) 106 % of control | dose: 125.0 mg/kg/injection, schedule: Q01DX Z (oral), vehicle: carboxymethylcellulose (CMC) 97 % of control | dose: 150.0 mg/kg/injection, schedule: Q01DX Z (ip), vehicle: carboxymethylcellulose (CMC) 94 % of control | dose: 175.0 mg/kg/injection, schedule: Q01DX Z (ip), vehicle: carboxymethylcellulose (CMC) 115 % of control | dose: 250.0 mg/kg/injection, schedule: Q01DX Z (ip), vehicle: carboxymethylcellulose (CMC) 109 % of control | dose: 250.0 mg/kg/injection, schedule: Q01DX Z (oral), vehicle: carboxymethylcellulose (CMC) 103 % of control | dose: 300.0 mg/kg/injection, schedule: Q01DX Z (oral), vehicle: carboxymethylcellulose (CMC) 103 % of control
